The target in the experiment is DGKα (Homo sapiens (Human), UniProt P23743). The experiment can be described thus: Human DGKα kinase activity inhibition assay (ADP-Glo). As to conditions: recombinant full-length human DGKα, 55 μM ATP, 7 μM 1,2-dioleoyl-sn-glycerol, read-out: IC50 values of examples in in vitro human DGKa kinase activity inhibition assays. In kind it is biochemical. The method, boiled down: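 Recombinant full-length human DGKα (C-terminal FLAG, from insect cells) phosphorylated 1,2-dioleoyl-sn-glycerol presented in octyl-glucopyranoside micelles. ADP formed was quantified by ADP-Glo luminescence. Compounds were added from 100-fold DMSO stocks.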
Sequence of DGKα (P23743 other isoform, or with tags, fused parts or gaps): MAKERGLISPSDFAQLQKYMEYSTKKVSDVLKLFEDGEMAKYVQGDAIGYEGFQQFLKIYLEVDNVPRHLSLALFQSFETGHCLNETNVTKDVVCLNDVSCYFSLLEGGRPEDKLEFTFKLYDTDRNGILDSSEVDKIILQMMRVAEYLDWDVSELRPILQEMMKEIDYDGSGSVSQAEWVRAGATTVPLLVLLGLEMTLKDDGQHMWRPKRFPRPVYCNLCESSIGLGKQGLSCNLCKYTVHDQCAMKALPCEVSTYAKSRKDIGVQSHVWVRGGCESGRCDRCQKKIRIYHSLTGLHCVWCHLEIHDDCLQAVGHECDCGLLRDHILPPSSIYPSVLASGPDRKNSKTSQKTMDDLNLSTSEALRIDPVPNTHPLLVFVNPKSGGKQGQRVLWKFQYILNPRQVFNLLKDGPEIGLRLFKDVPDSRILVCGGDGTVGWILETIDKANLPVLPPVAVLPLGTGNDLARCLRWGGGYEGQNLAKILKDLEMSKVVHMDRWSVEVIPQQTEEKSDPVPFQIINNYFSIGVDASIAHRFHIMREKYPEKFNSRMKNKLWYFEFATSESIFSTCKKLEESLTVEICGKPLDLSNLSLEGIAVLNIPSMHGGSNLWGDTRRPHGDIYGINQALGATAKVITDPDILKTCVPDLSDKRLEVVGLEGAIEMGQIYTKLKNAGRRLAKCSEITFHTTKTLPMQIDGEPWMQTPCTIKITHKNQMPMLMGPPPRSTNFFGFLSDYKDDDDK
`Cn1c(=O)c(C#N)c(N2CCC(c3nc4cc(OCC5CCCO5)ccc4o3)CC2)c2ccccc21` (centres unmarked) [Example 387, 1-methyl-2-oxo-4-(4-{5-[(oxolan-2-yl)methoxy]-1,3-benzoxazol-2-yl}piperidin-1-yl)-1,2-dihydroquinoline-3-carbonitrile]: the half-maximal inhibitory concentration (IC50) is 8.9 nM.

For `Cn1c(=O)c(C#N)c(N2CCC(c3cccc4ncsc34)CC2)c2ccccc21` [Example 75, 4-[4-(1,3-benzothiazol-7-yl)piperidin-1-yl]-1-methyl-2-oxo-1,2-dihydroquinoline-3-carbonitrile], the half-inhibitory concentration (IC50) turned out to be 49 nM. The same measure for `Cn1ccc2cc(C3CCN(c4c(C#N)c(=O)n(C)c5ccccc45)CC3)ccc21` [Example 50, 1-methyl-4-[4-(1-methyl-1H-indol-5-yl)piperidin-1-yl]-2-oxo-1,2-dihydroquinoline-3-carbonitrile]: 8.3 nM. The same measure for `Cn1c(=O)c(C#N)c(N2CCC(c3ccc4c(c3)CC(O)C4)CC2)c2ccccc21` (centres unmarked) [Example 359, 4-[4-(2-hydroxy-2,3-dihydro-1H-inden-5-yl)piperidin-1-yl]-1-methyl-2-oxo-1,2-dihydroquinoline-3-carbonitrile]: 3.3 nM; for `COc1ccc2c(c1)c(N1CCC(C)(c3nc4cc(C)ccc4o3)CC1)c(C#N)c(=O)n2C` [Example 246, 6-methoxy-1-methyl-4-[4-methyl-4-(5-methyl-1,3-benzoxazol-2-yl)piperidin-1-yl]-2-oxo-1,2-dihydroquinoline-3-carbonitrile]: 6.5 nM.

Take `Cn1c(=O)c(C#N)c(N2CCC(c3nc4ccccc4o3)CC2)c2ccc(Cl)cc21` [Example 227, 4-[4-(1,3-benzoxazol-2-yl)piperidin-1-yl]-7-chloro-1-methyl-2-oxo-1,2-dihydroquinoline-3-carbonitrile]: the IC50 was 2 nM. For the compound `Cc1cccc(-n2ccc(C3CCN(c4c(C#N)c(=O)n(C)c5ccccc45)CC3)n2)c1` [Example 366, 1-methyl-4-{4-[1-(3-methylphenyl)-1H-pyrazol-3-yl]piperidin-1-yl}-2-oxo-1,2-dihydroquinoline-3-carbonitrile], the 50% inhibitory concentration (IC50) was determined as 12 nM.

As for `Cc1ccc2oc(C3CCN(c4c(C(N)=O)c(=O)n(C)c5ccc(C(N)=O)cc45)CC3)nc2c1` [Example 499, 1-methyl-4-[4-(5-methyl-1,3-benzoxazol-2-yl)piperidin-1-yl]-2-oxo-1,2-dihydroquinoline-3,6-dicarboxamide], the half-inhibitory concentration (IC50) was found to be 74 nM. For `Cn1c(=O)c(C#N)c(N2CCC(c3ccc4c(c3)C(C)(C)CN4)CC2)c2ccccc21` [Example 356, 4-[4-(3,3-dimethyl-2,3-dihydro-1H-indol-5-yl)piperidin-1-yl]-1-methyl-2-oxo-1,2-dihydroquinoline-3-carbonitrile] the value was 5.1 nM; for `Cn1c(=O)c(C(N)=O)c(N2CCC(C)(c3nc4ccccc4o3)CC2)c2cccc(Cl)c21` [Example 310, 4-[4-(1,3-benzoxazol-2-yl)-4-methylpiperidin-1-yl]-8-chloro-1-methyl-2-oxo-1,2-dihydroquinoline-3-carboxamide], 34 nM. Consider `Cc1ccc2oc(C3(C)CCN(c4c(C#N)c(=O)n(C)c5ccccc45)CC3)nc2c1` [Example 288, 1-methyl-4-[4-methyl-4-(5-methyl-1,3-benzoxazol-2-yl)piperidin-1-yl]-2-oxo-1,2-dihydroquinoline-3-carbonitrile], for which the concentration for half-maximal inhibition (IC50) was 3.8 nM.

Regarding `COCc1ccc2c(c1)c(N1CCC(C)(c3nc4cc(C)ccc4o3)CC1)c(C#N)c(=O)n2C` [Example 213, 6-(methoxymethyl)-1-methyl-4-[4-methyl-4-(5-methyl-1,3-benzoxazol-2-yl)piperidin-1-yl]-2-oxo-1,2-dihydroquinoline-3-carbonitrile], the half-inhibitory concentration (IC50) came out at 39 nM. With `COc1cccc2c(N3CCC(C)(c4nc5cc(C)ccc5o4)CC3)c(C#N)c(=O)n(C)c12` [Example 260, 8-methoxy-1-methyl-4-[4-methyl-4-(5-methyl-1,3-benzoxazol-2-yl)piperidin-1-yl]-2-oxo-1,2-dihydroquinoline-3-carbonitrile], the half-inhibitory concentration (IC50) was determined as 35 nM.

On to `Cc1ccc2c(c1)c(N1CCC(c3nc4cc(C(C)C)ccc4o3)CC1)c(C#N)c(=O)n2C` [Example 186, 1,6-dimethyl-2-oxo-4-{4-[5-(propan-2-yl)-1,3-benzoxazol-2-yl]piperidin-1-yl}-1,2-dihydroquinoline-3-carbonitrile], for which the IC50 was determined as 9.1 nM. Take `CCOc1ccc2c(c1)c(N1CCC(c3nc4cc(C)ccc4o3)CC1)c(C#N)c(=O)n2C` [Example 405, 6-ethoxy-1-methyl-4-[4-(5-methyl-1,3-benzoxazol-2-yl)piperidin-1-yl]-2-oxo-1,2-dihydroquinoline-3-carbonitrile]: the IC50 worked out at 41 nM. Take `COC1(c2cc3ccccc3s2)CCN(c2c(C(N)=O)c(=O)n(C)c3ccccc23)CC1` [Example 455, 4-[4-(1-benzothiophen-2-yl)-4-methoxypiperidin-1-yl]-1-methyl-2-oxo-1,2-dihydroquinoline-3-carboxamide]: the IC50 is 1.9 nM. The same measure for `Cc1ccc2cc(C3CCN(c4c(C#N)c(=O)n(C)c5ccccc45)CC3)ccc2n1` [Example 371, 1-methyl-4-[4-(2-methylquinolin-6-yl)piperidin-1-yl]-2-oxo-1,2-dihydroquinoline-3-carbonitrile]: 14 nM; for `Cc1ccc2oc(C3CCN(c4c(C(N)=O)c(=O)n(C)c5ccc(OCC(F)F)cc45)CC3)nc2c1` [Example 504, 6-(2,2-difluoroethoxy)-1-methyl-4-[4-(5-methyl-1,3-benzoxazol-2-yl)piperidin-1-yl]-2-oxo-1,2-dihydroquinoline-3-carboxamide]: 238 nM; for `Cn1c(=O)c(C(N)=O)c(N2CCC(c3nc4ccccc4o3)CC2)c2ccc(C(F)(F)F)cc21` [Example 308, 4-[4-(1,3-benzoxazol-2-yl)piperidin-1-yl]-1-methyl-2-oxo-7-(trifluoromethyl)-1,2-dihydroquinoline-3-carboxamide]: 6.4 nM.

Regarding `COC1(c2cc3ccccc3s2)CCN(c2c(C#N)c(=O)n(C)c3ccccc23)CC1` [Example 341, 4-[4-(1-benzothiophen-2-yl)-4-methoxypiperidin-1-yl]-1-methyl-2-oxo-1,2-dihydroquinoline-3-carbonitrile], the IC50 amounted to 3.3 nM. For `Cn1c(=O)c(C#N)c(N2CCC(C)(c3nc4ccccc4o3)CC2)c2ccc(Cl)cc21` [Example 226, 4-[4-(1,3-benzoxazol-2-yl)-4-methylpiperidin-1-yl]-7-chloro-1-methyl-2-oxo-1,2-dihydroquinoline-3-carbonitrile] the value was 1.3 nM.

In the case of `Cn1c(=O)c(C#N)c(N2CCC(c3nc4cc(C(F)(F)F)ccc4s3)CC2)c2ccccc21` [Example 23, 1-methyl-2-oxo-4-{4-[5-(trifluoromethyl)-1,3-benzothiazol-2-yl]piperidin-1-yl}-1,2-dihydroquinoline-3-carbonitrile], the IC50 was 12 nM. As for `COc1cc2c(cc1Cl)c(N1CCC(c3nc4cc(C)ccc4o3)CC1)c(C#N)c(=O)n2C` [Example 566, 6-chloro-7-methoxy-1-methyl-4-[4-(5-methyl-1,3-benzoxazol-2-yl)piperidin-1-yl]-2-oxo-1,2-dihydroquinoline-3-carbonitrile], the IC50 is 0.3 nM. The same measure for `Cc1ccc2oc(C3(C)CCN(c4c(C#N)c(=O)n(C)c5cc(Br)ccc45)CC3)nc2c1` [Example 110, 7-bromo-1-methyl-4-[4-methyl-4-(5-methyl-1,3-benzoxazol-2-yl)piperidin-1-yl]-2-oxo-1,2-dihydroquinoline-3-carbonitrile]: 2.6 nM; for `Cn1c(=O)c(C#N)c(N2CCC(c3cccc4scnc34)CC2)c2ccccc21` [Example 71, 4-[4-(1,3-benzothiazol-4-yl)piperidin-1-yl]-1-methyl-2-oxo-1,2-dihydroquinoline-3-carbonitrile]: 23 nM; for `Cn1c(=O)c(C#N)c(N2CCC(c3ccc(OCC(F)(F)F)cc3)CC2)c2ccccc21` [Example 37, 1-methyl-2-oxo-4-{4-[4-(2,2,2-trifluoroethoxy)phenyl]piperidin-1-yl}-1,2-dihydroquinoline-3-carbonitrile]: 1.1 nM. The same measure for `COCCc1cccc2oc(C3CCN(c4c(C#N)c(=O)n(C)c5ccccc45)CC3)nc12` [Example 265, 4-{4-[4-(2-methoxyethyl)-1,3-benzoxazol-2-yl]piperidin-1-yl}-1-methyl-2-oxo-1,2-dihydroquinoline-3-carbonitrile]: 49 nM; for `Cn1c(=O)c(C(N)=O)c(N2CCC(c3nc(-c4ccccc4)no3)CC2)c2cc(Br)ccc21` [Example 523, 6-bromo-1-methyl-2-oxo-4-[4-(3-phenyl-1,2,4-oxadiazol-5-yl)piperidin-1-yl]-1,2-dihydroquinoline-3-carboxamide]: 3.7 nM; for `Cn1cc(C(=O)C(F)(F)F)c2cc(C3CCN(c4c(C#N)c(=O)n(C)c5ccccc45)CC3)ccc21` [Example 72, 1-methyl-4-{4-[1-methyl-3-(trifluoroacetyl)-1H-indol-5-yl]piperidin-1-yl}-2-oxo-1,2-dihydroquinoline-3-carbonitrile]: 30 nM.

Turning to `Cn1c(=O)c(C#N)c(N2CCC(c3nc(-c4ccccc4)no3)CC2)c2cc(Br)ccc21` [Example 440, 6-bromo-1-methyl-2-oxo-4-[4-(3-phenyl-1,2,4-oxadiazol-5-yl)piperidin-1-yl]-1,2-dihydroquinoline-3-carbonitrile], the half-maximal inhibitory concentration (IC50) turned out to be 8.9 nM.

Take `Cc1ccc2oc(C3(C)CCN(c4c(C(N)=O)c(=O)n(C)c5ccccc45)CC3)nc2c1` [Example 302, 1-methyl-4-[4-methyl-4-(5-methyl-1,3-benzoxazol-2-yl)piperidin-1-yl]-2-oxo-1,2-dihydroquinoline-3-carboxamide]: the IC50 was found to be 1.1 nM. As to `COc1ccc(C2CCN(c3c(C#N)c(=O)n(C)c4cc(C5COC5)ccc34)CC2)cc1` [Example 97, 4-[4-(4-methoxyphenyl)piperidin-1-yl]-1-methyl-7-(oxetan-3-yl)-2-oxo-1,2-dihydroquinoline-3-carbonitrile], the half-inhibitory concentration (IC50) worked out at 33 nM.

These data come from patent US11998539B2, “Substituted aminoquinolones as DGKalpha inhibitors for immune activation” (Bayer Aktiengesellschaft, priority 2019, dated 2024).
